Results: patent US20240307363A1, “METHODS FOR TREATING A PULMONARY DISEASE WITH AN ALK-5 (TGF BETA R1) INHIBITOR” (Thirona Bio, Inc., priority 2021, published 2024)
pIC50: −log10 of the molar value. Like-named read-outs stand apart in the source and are kept apart here. One block for each compound: values may come before it.

Columns and labels:
[1] = Intrinsic clearance in human liver microsomes; assay type: in vitro ADME; conditions: pH 7.4, 0.1 μM test compound, 0.1 mg/mL protein, 1 mM NADPH
Method: Assay methods that evaluate the intrinsic clearance (CLINT) in human liver microsomes (HLMs) have been described in the art (Drug Metab. Dispos., (2005), 33(9), 1304-1311 BMC Pulmonary Medicine (2018), 18(63), 1-13). Representative compounds are tested as follows for their intrinsic clearance (CLINT) in human liver microsomes as follows.
A […] microsomal incubation cofactor solution was prepared with 100 mM potassium phosphate buffered to pH 7.4 (BD Biosciences, Woburn, Mass.) supplemented with 2 mM NADPH (Sigma-Aldrich, St. Louis, Mo.). 10 mM DMSO stocks of test compound are diluted and spiked into the cofactor solution to yield a 0.2 μM concentration (0.02% v/v DMSO). Aliquots of frozen human liver microsomes (Bioreclamation IVT, Baltimore Md.) are thawed and diluted into 100 mM potassium phosphate buffer to yield microsomal protein concentrations of 0.2 mg/mL. Cofactor/drug and microsomal solutions are pre-warmed separately for 4 minutes in a water bath held at 37° C. Incubations (n=1) are started by the combination of equal volumes of cofactor/drug solution with microsomal solution. The final concentration of test compound is 0.1 μM with a final […] protein concentration of 0.1 mg/mL and final NADPH concentration of 1 mM. […] Samples are then injected onto an AB Sciex API 4000 triple quadrupole mass spectrometer for quantitation by LC-MS/MS. […]

[2] = tested on: bleomycin-induced lung fibrosis; assay: Efficacy study in bleomycin lung fibrosis model; assay type: in vivo; conditions: mice
Method: Compound 3 may be used to prevent and reverse lung fibrosis and improve lung function and exercise capacity. Male C57BL6/J mice (7-9 weeks old) from the Jackson Laboratory (Bar Harbor, ME), are used for efficacy studies. […] Bleomycin (1-5 U/kg) in […] is intratracheally sprayed into mice lightly anaesthetized with isoflurane (5% in 100%02). Control animals receives […] of 0.9% saline. […] Animals are treated until the end of the study (day 21 post-bleomycin administration). Lung Function and Exercise Capacity: Invasive lung function measurements are taken at specified time points following bleomycin. Mice are anesthetized with 2.5 mg sodium pentobarbital (Abbott Labs, IL), and the trachea cannulated. Animals are mechanically ventilated using a computer-controlled piston ventilator (flexiVent, SCIREQ Inc., Montreal, Canada: tidal volume=10 ml/kg, respiratory rate of 150 breaths/min, 3 cmH2O positive end-expiratory pressure). To test exercise capacity animals are placed on a treadmill at a 5% incline at a speed to 10 m/minute and the speed increased 1 m/minute every 4 minutes of the test until exhausted. Baseline exercise capacity for each mouse is assessed 2 days prior to either saline or bleomycin administration and then once weekly after administration at days 6, 12, and 19 post-instillation. Bronchoalveolar Lavage Cell Assessment: Immediately following lung function measurements, mice are exsanguinated, bronchoalveolar lavage fluid (BALF) is collected, and total and differential cell counts are performed. […] Samples are mixed and centrifuged before injection for LC/MS/MS analysis. LC/MS/MS analysis is conducted by gradient HPLC with selective reaction monitoring (SRM). The calibration range was 40-2,000 ng/ml. The LC/MS/MS system used for the analysis consisted of an AB-Sciex API4000 with an electrospray source connected to an Agilent 1200 pump, a Waters 2777 autosampler, and an Agilent 1100 series column oven. Chromatographic analysis is conducted by HILIC HPLC with an Ascentis Express HILIC ([…], 2.7 um) column. The SRM transition is m/z 132 to m/z 41. Histology: After performing lung function measurements, whole lungs (that are not subject to bronchoalveolar lavage) are inflated under 25 cm H2O pressure with 10% neutral buffered formalin through the tracheal cannula and immersed in formalin for at least 24 h. After being processed into paraffin blocks, the lungs are sectioned ([…]) and stained with either hematoxylin and cosin (H&E) or immunolabeled with an anti-collagen I antibody (rabbit polyclonal, Genetex Inc., Irvine, CA), to assess fibrotic changes in the lungs. To determine the fibrosis histopathology score for the lung of each mouse, the entire left and right longitudinal lung sections (at the level of tracheal bifurcation) are scored separately at 100× magnification and the scores were combined (total score range 0-8). Grading criteria are as follows: Grade 0=no apparent fibrosis; Grade 1=minimal fibrosis with rare foci of mostly interstitial alveolar septal fibrosis affecting less than 5% of the entire lung section; Grade 2=mild fibrosis characterized by multiple foci with thickening of alveolar septa by fibrosis and progressing to regions with fibrous deposition within the alveolar spaces with some damage to the alveoli, affecting 5-25% of the entire lung section; Grade 3=moderate fibrosis with multiple or single coalescing large areas of fibrosis effacing the alveoli with definitive damage to pulmonary architecture, affecting 25-50% of the entire lung section; Grade 4=marked fibrosis with severe distortion of pulmonary parenchyma by large contiguous fibrous areas, affecting 50-75% of the entire lung section. For collagen I IHC quantification, glass slides are scanned at 20× using a Zeiss Mirax scanner (Carl Zeiss Microimaging. Thornwood, NY), and digital slides generated were analyzed using Definiens Tissue Studio software (Definiens, Munich, Germany). […]

[3] = tested on: luc-CT26 tumor outgrowth in the lungs; assay: Efficacy study in a syngeneic lung cancer model (luc-CT26 cells i.v., lung bioluminescence); assay type: in vivo; conditions: BALB/c mice
Method: Compound 3 may be used to suppress tumor growth in the lungs of a syngeneic cancer model when administered alone or in combination with an immunotherapeutic agent. Six- to eight-week old BALB/c mice are used for in vivo efficacy studies in accordance with IACUC guidelines. Firefly luciferase-expressing CT-26 mouse colon carcinoma cells (luc-CT26, CSC-RR0237, Creative Biogene, Shirley, NY, USA) are grown at 37° C. in a 5% CO2 humidified atmosphere in Dulbecco's Modified Eagle's Medium (D6429, Dominique Dutscher, Brumath, France) supplemented with 10% foetal bovine serum (500105NIDD, Dominique Dutscher), 0.2% glucose (19002-013, Gibco, Thermo Fisher Scientific, Hampton, NH, USA), 2 mM L-[…], Dominique Dutscher), 100 U/ml penicillin and 100 μg/ml streptomycin (15140155, Gibco, Thermo Fisher Scientific). Cell suspensions are prepared by enzymatic treatment with trypsin-EDTA (11560626, Thermo Fisher Scientific). Luc-CT26 cells (2×10^5 cells/mouse) are injected intravenously into BALB/c mice to generate the cancer model in which tumor outgrowth in the lungs is observed. Following injection of CT26 cells and starting on day 6, the mice are monitored 3 times a week (i.e., day 6, day 8, day 11, day 13, etc.) using an IVIS spectrum imaging system (Caliper, PerkinElmer) after ip injection of D-luciferin. […] Body weight is measured twice weekly.

[4] = target: ALK5 (Homo sapiens (Human), UniProt P36897); assay: In vitro screen for ALK5 kinase inhibition (ALK5 phosphorylation of α-Casein, filter-plate radiometric); assay type: biochemical; conditions: ALK5 protein 2 nM final, α-Casein substrate; mean of two or more IC50 values
Sequence of ALK5 (P36897 34-503, species assumed): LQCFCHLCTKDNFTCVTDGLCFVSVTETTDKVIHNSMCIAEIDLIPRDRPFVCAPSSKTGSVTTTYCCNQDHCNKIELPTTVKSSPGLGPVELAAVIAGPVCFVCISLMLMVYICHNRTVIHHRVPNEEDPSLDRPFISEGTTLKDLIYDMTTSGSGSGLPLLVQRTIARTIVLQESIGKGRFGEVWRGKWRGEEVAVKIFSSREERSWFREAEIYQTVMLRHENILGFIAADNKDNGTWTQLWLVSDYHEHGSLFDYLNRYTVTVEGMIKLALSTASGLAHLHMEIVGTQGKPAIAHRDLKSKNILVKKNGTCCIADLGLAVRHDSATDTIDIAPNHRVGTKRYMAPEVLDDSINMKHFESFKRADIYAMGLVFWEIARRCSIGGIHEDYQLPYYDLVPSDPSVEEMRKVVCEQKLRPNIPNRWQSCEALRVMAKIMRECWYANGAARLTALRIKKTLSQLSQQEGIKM
Method: Representative compounds are tested as follows for inhibition of ALK5 autophosphorylation activity and of the ALK5 phosphorylation of α-Casein.
Representative compounds are screened using the assay procedure for ALK5 kinase activity as described below.
In a 96 well filter-bottom plate (Millipore, #MSDV N6B 50), 58 μL Assay Buffer is added to reach well. Add 10 μL of Cold ATP mix in Assay Buffer, then 10 μL of a 1:10 dilution of α-Casein stock. Then add 2 μL of compound being tested (DMSO) at a 50× final concentration. Hot ATP mix (10 μL) is added, and the reaction is started with the addition of 10 μL of a 1:350 dilution of the ALK5 protein (2 nM final) in Assay Buffer with 0.05% BSA (Bovine Serum Albumin). […] The reaction is then stopped with the addition of 100 μL of ice-cold 20% TCA (trichloroacetic acid). The assay is then incubated for at least 1 hour at 4° C., and then the contents of each well are filtered by suction through the filter. The wells are washed three times with 200 μL ice-cold 10% TCA. The plate bottom is blotted before and after removing plastic sub-base, and dried overnight at room temperature. Add 30 μL of scintillation fluid, and count 1 minute per well on a Wallac Tri-Lux scintillation counter.

[5] = rats, chronic (>3 months) administration; cited from earlier work
[6] = dogs, chronic (>3 months) administration; cited from earlier work
[7] = rats; cited from earlier work
[8] = tested on: heart valves; conditions: preclinical animal model; all heart valves at all doses tested; cited from earlier work
[9] = tested on: bleomycin model; conditions: cited from earlier work
[10] = tested on: bleomycin-induced pulmonary fibrosis; conditions: bleomycin-challenged rats, cited from earlier work
[11] = cynomolgus monkey, in vivo; cited from earlier work
[12] = cited from earlier work

CLint scaled at 0.1 μM [1]: 199 mL/min/kg
Compound: Cc1cccc(-n2ncc(C)c2-c2cc3cnccc3s2)n1 [Compound 3, 2-[4-methyl-1-(6-methylpyridin-2-yl)-1H-pyrazol-5-yl]thieno[3,2-c]pyridine]
HP content ([2]; 4-hydroxyproline, intranasal): significant reduced
bleomycin-induced lung fibrosis ([2]; dosed intranasally, prophylactic or therapeutic, until day 21): prevents and/or reverses
collagen 1 assessed by IHC ([2]; intranasal): reduced
fibrosis histopathology scores in the lung ([2]; intranasal): improvements
lung function ([2]; intranasal): significantly improved
exercise capacity ([2]; intranasal, treadmill): increased
bioluminescence intensity (BLI) in the lungs ([3]; Compound 3 alone, intranasal): Statistically significant reduction
efficacy as measured by reduction in BLI ([3]; combination with an immunotherapeutic agent): increased efficacy

Compound: CCc1cnn(-c2cccc(C)n2)c1-c1cc2cnccc2s1 [Compound 7]
pIC50 [4]: 8.36

Compound: Cc1cccc(-c2nn3c(c2-c2ccnc4ccc(C(N)=O)cc24)CCC3)n1 [Compound 41, galunisertib]
organ toxicities [5]: caused multiple organ toxicities
organ toxicities [6]: caused multiple organ toxicities

Compound: O=C(NC1CCOCC1)c1ccc(-c2cc(-c3c[nH]nc3-c3ccccn3)ccn2)cc1 [Compound 46]
physeal dysplasia [7]: induced physeal dysplasia

Compound: c1ccc(-c2nc3c(c(-n4ccc5cnccc54)n2)CCC3)nc1 [Compound 47]
heart valve lesions [8]: induced heart valve lesions

Compound: Cc1ccc(Oc2ccnc(Nc3ccc(S(N)(=O)=O)cc3)c2)c(C)n1 [Compound 48]
heart valve lesions [8]: induced heart valve lesions

Compound: Cc1cccc(-c2[nH]ncc2-c2ccc(F)c(-c3cnn(CCO)c3)c2)n1 [Compound R-268712]
antifibrotic efficacy [9]: strong antifibrotic efficacy

Compound: Cc1cccc(-c2[nH]c(C(C)(C)C)nc2-c2ccc3nccnc3c2)n1 [SB-525334]
parameters of lung function ([10]; after onset of fibrosis, vs vehicle-treated controls): significant dose-dependent improvements
pulmonary pathology [10]: significant reduction

Compound: Fresolimumab: a “pan” TGF-β antibody capable of neutralizing all human isoforms of TGF-β
epithelial hyperplasia of the gingiva, bladder and nasal turbinate epithelium [11]: induce an epithelial hyperplasia
adverse events ([12]; human, in vivo): bleeding and anemia issues
clinical anti-fibrotic efficacy ([12]; scleroderma patients): clear clinical anti-fibrotic efficacy
